Values after ≈ are worked out from the molar mass of the structure shown.
How the values were obtained:
[1] = system: Platelet aggregation (collagen); experiment: Anti-platelet activity, Test 3: collagen-induced platelet aggregation in blood after oral administration; type: in vivo, Male Sprague-Dawley rats; settings: 32 mg/kg oral, blood collected one hour after; collagen 5.0 μg/ml
Protocol: Male Sprague-Dawley rats weighing about 250 g were used after overnight fasting. One hour after oral administration of test compound or vehicle of test compound (control), blood was collected into a tube containing 0.1 vol. of 3.8% sodium citrate. To the 0.45 ml of blood, 0.05 ml of collagen (final concentration 5.0 μg/ml) was added and then incubated for 5 min. at 37° C. under shaking. The reaction was terminated by addition of 1 ml of 10 mM phosphate buffered saline (pH 7.4) containing 11.5 mM EDTA and 1% formalin. The reaction mixture was centrifuged at 70 xg for 5 min. and platelet count of upper phase was measured by Technicon Auto Analizer.
Platelet aggregation was calculated according to the following formula: [formula] A: Platelet count after addition of vehicle of collagen B: Platelet count after addition of collagen.
Inhibition of the test compound was calculated according to the following formula. [formula] C: Platelet aggregation (%) of control D: Platelet aggregation (%) of Test compound.

[2] = system: Platelet aggregation (9,11-azo PGH2); experiment: Anti-platelet activity, Test 4: 9,11-azo PGH2-induced platelet aggregation in platelet rich plasma; type: cell-based, rabbits; settings: Oryctolagus cuniculus, rabbit PRP, 9,11-azo PGH2 1.0 μM, 37° C.
Protocol: The blood was collected from the carotid artery of rabbits into plastic vessels containing 0.1 volume of 3.8% sodium citrate. Platelet rich plasma (PRP) was prepared by centrifugation at 150 g for 15 minutes. Platelet aggregation was investigated by using the turbidimetric method with an aggregometer (NKK HEMATRACER 1). To the 225 μl of PRP, 25 μl of test compound solution was added, and then stirred at 1000 rpm for 2 minutes at 37° C. To the solution 5 μl of 9,11-azo PGH2 (final 1.0 μM) was added as an aggregating inducer.

[3] = system: atrial strip; experiment: Cardiotonic activity, Test 2: contractile force and heart rate of isolated atrial strip; set-up: species or system Male Hartley strain guinea-pigs; settings: Cavia porcellus, 0.5 h; 1 × 10^-5 g/ml; 30° C.; observed for 30 min; percentage before and after dosing
Protocol: Male Hartley strain guinea-pigs, weighing 530-600 g, were killed by bleeding and the heart was removed. An atrial strip was removed and suspended in an organ bath containing 50 ml of Tyrode's solution maintained at 30° C. and aerated with a gas mixture of 95% O2 -5% CO2. The atrium was connected to a strain gauge under an initial tension of 0.4-0.6 g. […] The effect was expressed as percentage values before and after dosing.

[4] = system: left ventricular pressure (dp/dt max); experiment: Cardiotonic activity, Test 1: dp/dt max change in anesthetized dogs; type: in vivo, Mongrel dogs; settings: 1.0 mg/kg, injected into the femoral vein
Protocol: Mongrel dogs of either sex were anesthetized with sodium pentobarbital, 35 mg/kg, i.p.. The animals were allowed to breathe spontaneously. The left carotid artery was isolated and a catheter (USCI, #8F) filled with heparinized saline was inserted and advanced into the left ventricle. The catheter was connected to a pressure transducer (Nihonkohden, MPU-0.5A) to measure the left ventricular pressure, from which dp/dt max was derived by analog computing. The measure the systemic blood pressure the left femoral artery was cannulated. The blood pressure pulse was used to trigger a heart rate meter. Another catheter was positioned in the vena cave through right femoral vein for injection of drugs. Systemic blood pressure, left ventricular pressure, dp/dt max and heart rate was recorded simultaneously on a polygram (Nihonkohden, RJG-4008).
Test compound was dissolved in distilled water (0.2 ml/kg) or dimethyl sulfoxide (0.04 ml/kg) and injected into the femoral vein. The parameters after dosing were compared with those during the predosing period.
Test results were represented in terms of percentage of dp/dt max changes (dp/dt M.C.) calculated by following formula. [formula]

[5] = system: carrageenin foot edema; experiment: Anti-inflammatory activity, Test 5: carrageenin foot edema; type: in vivo, Male Sprague-Dawley rats; settings: 32 mg/kg oral, 60 minutes before phlogogen; edema volume 3 hours after phlogogen; 1% carrageenin
Protocol: Male Sprague-Dawley rats weighing about 180 g were used in groups of five. Paw edema was induced by subplantar injection of 1% carrageenin (0.1 ml/rat) into the right hind paw in carrageenin foot edema. The test compound was suspended in methylcellulose and administered orally 60 minutes before halogogen. Paw volume was measured with plethysmometer (Ugo Basil Co., Ltd.) by water displacement immersing the paw to the lateral malleolus. The difference of paw volume before and 3 hours after the phlogogen was designated as edema volume.
The data was analyzed statistically by student's t-test.

Question: With CC(=O)Nc1ccccc1-c1nc(C)c(-c2cccnc2)[nH]1 [Compound j, 2-(2-Acetamidophenyl)-4-methyl-5-(3-pyridyl)imidazole] as the compound, how does the “Inhibition (platelet aggregation)” value [1] read?
Answer: 91.3%

Question: And the IC50 [2]?
Answer: 0.39 µg/mL (≈ 1.33 µM)

Question: Which activation at 10 µg/mL [3] does the source give for COc1ccc(-c2nc(-c3ccncc3)c(C)[nH]2)c(OC)c1 [Compound e, 2-(2,4-Dimethoxyphenyl)-5-methyl-4-(4-pyridyl)imidazole] here?
Answer: 58%

Question: And the inhibition at 10 µg/mL [3]?
Answer: 26.8%

Question: With COc1cc(SC)ccc1-c1nc(-c2cccnc2)c(C)[nH]1 [Compound c, 2-(2-Methoxy-4-methylthiophenyl)-5-methyl-4-(3-pyridyl)imidazole] as the compound, how does the “dp/dt M.C. (percentage of dp/dt max changes)” value [4] read?
Answer: 167%

Question: With COc1ccccc1-c1nc(-c2cccnc2)c(C)[nH]1 [Compound h, 2-(2-Methoxyphenyl)-5-methyl-4-(3-pyridyl)imidazole] as the compound, how does the “Inhibition (paw edema)” value [5] read?
Answer: 62.7%

Question: How did the “dp/dt M.C. (percentage of dp/dt max changes)” value [4] turn out when CCc1nc(-c2ccc(OC)cc2OC)[nH]c1-c1cccnc1 [Compound b, 2-(2,4-Dimethoxyphenyl)-4-ethyl-5-(3-pyridyl)imidazole] was run?
Answer: 133%

Question: Which activation at 10 µg/mL [3] does the source give for CCc1[nH]c(-c2ccc(OC)c(OC)c2)nc1-c1ccccn1 [Compound d, 2-(3,4-Dimethoxyphenyl)-5-ethyl-4-(2-pyridyl)imidazole] here?
Answer: 51.6%

Question: What about the inhibition at 10 µg/mL [3] of the same compound?
Answer: 14.1%

Question: Which IC50 [2] does the source give for COc1cc(Cl)ccc1-c1nc(-c2cccnc2)c(C)[nH]1 [Compound k, 2-(4-Chloro-2-methoxyphenyl)-5-methyl-4-(3-pyridyl)imidazole] here?
Answer: 0.16 µg/mL (≈ 0.534 µM)

Question: What about the “Inhibition (paw edema)” value [5] of the same compound?
Answer: 72.3%

Question: COc1cc(NC(C)=O)c(Cl)cc1-c1nc(-c2cccnc2)c(C)[nH]1 [Compound g, 2-(4-Acetamido-5-chloro-2-methoxyphenyl)-5-methyl-4-(3-pyridyl)imidazole] was tested. Which “Inhibition (platelet aggregation)” value [1] did it give?
Answer: 87.6%

Question: Which activation at 10 µg/mL [3] does the source give for CCc1[nH]c(-c2ccc(OC)cc2OC)nc1-c1ccncc1 [Compound f, 2-(2,4-Dimethoxyphenyl)-5-ethyl-4-(4-pyridyl)imidazole] here?
Answer: 61.1%

Question: What about the inhibition at 10 µg/mL [3] of the same compound?
Answer: 30.7%

Question: What does the source list for Cc1nc(-c2ccccc2F)[nH]c1-c1cccnc1 [Compound i, 2-(2-Fluorophenyl)-4-methyl-5-(3-pyridyl)imidazole]?
Answer: Inhibition (platelet aggregation) [1]: 100%; IC50 [2]: 0.11 µg/mL (≈ 0.434 µM)

Question: With COc1ccc(-c2nc(-c3cccnc3)c(C)[nH]2)c(OC)c1 [Compound a, 2-(2,4-Dimethoxyphenyl)-5-methyl-4-(3-pyridyl)imidazole] as the compound, how does the “dp/dt M.C. (percentage of dp/dt max changes)” value [4] read?
Answer: 82%

Question: And the activation at 10 µg/mL [3]?
Answer: 45%

Question: What about the inhibition at 10 µg/mL [3] of the same compound?
Answer: 21.2%
